# Results reported in patent US10350199B2, “3-(1h-pyrrolo[2,3-b]pyridin-2-yl)-1h-indazoles and therapeutic uses thereof” (Samumed, LLC, priority 2015, dated 2019).
# Key:
# Format in all cases: cell-based
# [1] = test system: Wnt activity (Sp5-Luc reporter, SW480 colon carcinoma cells); assay: Wnt activity screening assay, Sp5-Luc reporter gene in SW480 cells; conditions: Homo sapiens; for inhibition at 10 µM: SW480, read-out: percent inhibition at 10 μM; for EC50: Sp5-Luc reporter, SW480 cells, overnight incubation
# Source text: The screening assay for Wnt activity is described as follows. Reporter cell lines can be generated by stably transducing cancer cell lines (e.g., colon cancer) or primary cells (e.g., IEC-6 intestinal cells) with a lentiviral construct that includes a Wnt-responsive promoter driving expression of the firefly luciferase gene.
# SW480 colon carcinoma cells were transduced with a lentiviral vector expressing luciferase with a human Sp5 promoter consisting of a sequence of eight TCF/LEF binding sites. SW480 cells stably expressing the Sp5-Luc reporter gene and a hygromycin resistance gene were selected by treatment with 150 μg/mL of hygromycin for 7 days. These stably transduced SW480 cells were expanded in cell culture and used for all further screening activities. […] For Sp5-Luc reporter gene assays, the cells were plated at 4,000 cells/well in 384-well plates with medium containing 1% fetal bovine serum and incubated overnight at 37° C. and 5% CO2. Following incubation, 20 μl of BrightGlo luminescence reagent (Promega) was added to each well of the 384-well assay plates. The plates were placed on an orbital shaker for 2 min and then luminescence was quantified using the Envision (Perkin Elmer) plate reader. Readings were normalized to DMSO only treated cells, and normalized activities were utilized for EC50 calculations using the dose-response log (inhibitor) vs. response -variable slope (four parameters) nonlinear regression feature available in GraphPad Prism 5.0 (or Dotmatics).
# SW480 colon cancer cells = assay: Cell viability assay (CellTiter-Blue), SW480 cells, four days; conditions: Homo sapiens; for EC50: 96 h, SW480 cell viability, four days, CellTiter-Blue; for inhibition at 10 µM: SW480, read-out: percent inhibition at 10 μM
# Description: Representative compounds were screened using the following assay procedure to assess the effect on cell viability as described below.
# Approximately 2×10^3 SW480 colon cancer cells were seeded into each well and allowed to incubate in the presence or absence of compound for four days at 37° C./5% CO2. Eight replicates of DMSO-treated cells served as controls and cells treated with compound were performed in duplicate.
# After incubation, 20 μL of CellTiter-Blue (Promega) was added to each well allowed to incubate for approximately 3 hours. This reagent was a buffered solution which contains resazurin, metabolically active cells were able to reduce rezarurin (blue) into resorufin (pink) which was highly fluorescent. This measured fluorescence was used as a readout for cell viability.
# [2] = test system: primary human fibroblasts derived from IPF patients (LL29 cells) treated with TGF-β1; assay: Inhibition of the fibrotic process: αSMA staining in TGF-β1 treated LL29 fibroblasts; conditions: Fibroblast; for EC50: 96 h, LL29 cells, TGF-β1 20 ng/mL, 4 days, % αSMA positive cells; for inhibition at 10 µM: read-out: percent inhibition at 10 μM
# Description: Representative compounds were screened using primary human fibroblasts (derived from IPF patients) treated with TGF-β1 to determine their ability to inhibit the fibrotic process.
# LL29 cells are plated at 1,500 cells/well in 80 μL/well F12 medium supplemented with 1% Fetal Bovine Serum. […] Wells treated with TGF-β1 and containing DMSO were used as controls. […] Following incubation for 4 days, SYTOX green nucleic acid stain (Life Technologies [Thermo Fisher Scientific]) was added to the wells at a final concentration of 1 μM and incubated at room temperature for 30 min.
# [3] = test system: IL-6 (THP-1 human monocyte cell line); assay: IL-6 inhibition in LPS-stimulated THP-1 cells (HTRF); conditions: for EC50: IL-6 inhibition, LPS-stimulated THP-1 cells, HTRF; for inhibition at 10 µM: THP-1, read-out: percentage in parentheses beside EC50 >10 (IL-6 inhibition)
# Description: THP-1 cells were cultured in basal media with 1% FBS for 24 hours before the start of the assay. […] THP-1 cells were plated at 5000 cells/well in the 384-well plates and incubated at 37° C. for 2 h. 500 ng/mL of LPS was added after 2 hours and cells were incubated for another 22 hours at 37° C. Plates were spun in a centrifuge for 1 minute at […] and a mixture of anti-IL6 XL665, and anti-IL6 Cryptate diluted in reconstitution buffer (Cisbio Inc.) was added to each well. Following incubation for 3 hrs at room temperature, Homogeneous Time-Resolved Fluorescence (HTRF) was measured using the Envision (Perkin Elmer) at 665 nm and […]. The ratio of fluorescence at 665 nm to 620 nm was used as a readout for IL6 quantification. All samples were processed in duplicate. Readings were normalized to DMSO treated cells and normalized activities were utilized for EC50 calculations using the dose-response log (inhibitor) vs. response -variable slope (four parameters) nonlinear regression feature available in GraphPad Prism 5.0 (or Dotmatics).
smiles,measurement,setting,value
"Fc1cccc(-c2ccnc3[nH]c(-c4n[nH]c5ccc(-c6ccncc6)cc45)cc23)c1 [Compound 18, 3-(4-(3-Fluorophenyl)-1H-pyrrolo[2,3-b]pyridin-2-yl)-5-(pyridin-4-yl)-1H-indazole]",inhibition at 10 µM,[1],18%
same,EC50,[1],> 10 µM
same,EC50,SW480 colon cancer cells,> 10 µM
same,inhibition at 10 µM,SW480 colon cancer cells,16.2%
same,EC50,[2],> 10 µM
same,inhibition at 10 µM,[2],33.6%
same,EC50,[3],0.995 µM
"O=C(Nc1cncc(-c2ccc3[nH]nc(-c4cc5c(-c6cccc(F)c6)ccnc5[nH]4)c3c2)c1)C1CC1 [Compound 20, N-(5-(3-(4-(3-Fluorophenyl)-1H-pyrrolo[2,3-b]pyridin-2-yl)-1H-indazol-5-yl)pyridin-3-yl)cyclopropanecarboxamide]",EC50,[1],0.035 µM
same,EC50,SW480 colon cancer cells,1.06 µM
same,EC50,[2],7.73 µM
same,EC50,[3],> 10 µM
same,inhibition at 10 µM,[3],34.5%
"Fc1cccc(-c2ccnc3[nH]c(-c4n[nH]c5ccc(-c6cncc(CN7CCC(F)(F)C7)c6)cc45)cc23)c1 [Compound 26, 5-(5-((3,3-Difluoropyrrolidin-1-yl)methyl)pyridin-3-yl)-3-(4-(3-fluorophenyl)-1H-pyrrolo[2,3-b]pyridin-2-yl)-1H-indazole]",inhibition at 10 µM,[1],49%
same,EC50,[1],> 10 µM
same,EC50,SW480 colon cancer cells,> 10 µM
same,inhibition at 10 µM,SW480 colon cancer cells,40.6%
same,EC50,[2],1.96 µM
same,EC50,[3],0.285 µM
"Fc1cccc(-c2ccnc3[nH]c(-c4n[nH]c5ccc(-c6ccccn6)cc45)cc23)c1 [Compound 28, 3-(4-(3-Fluorophenyl)-1H-pyrrolo[2,3-b]pyridin-2-yl)-5-(pyridin-2-yl)-1H-indazole]",inhibition at 10 µM,[1],8.5%
same,EC50,[1],> 10 µM
same,EC50,SW480 colon cancer cells,> 10 µM
same,inhibition at 10 µM,SW480 colon cancer cells,12.9%
same,EC50,[2],> 10 µM
same,inhibition at 10 µM,[2],12%
same,EC50,[3],> 10 µM
same,inhibition at 10 µM,[3],21%
"CC(C)CC(=O)Nc1cncc(-c2ccc3[nH]nc(-c4cc5c(-c6ccc(F)cc6)ccnc5[nH]4)c3c2)c1 [Compound 30, N-(5-(3-(4-(4-Fluorophenyl)-1H-pyrrolo[2,3-b]pyridin-2-yl)-1H-indazol-5-yl)pyridin-3-yl)-3-methylbutanamide]",inhibition at 10 µM,[1],13.6%
same,EC50,[1],> 10 µM
same,EC50,SW480 colon cancer cells,> 10 µM
same,inhibition at 10 µM,SW480 colon cancer cells,14.9%
same,EC50,[2],> 10 µM
same,inhibition at 10 µM,[2],20.2%
same,EC50,[3],> 10 µM
same,inhibition at 10 µM,[3],25.3%
"CC(C)(C)C(=O)Nc1cncc(-c2ccc3[nH]nc(-c4cc5c(-c6ccc(F)cc6)ccnc5[nH]4)c3c2)c1 [Compound 36, N-(5-(3-(4-(4-Fluorophenyl)-1H-pyrrolo[2,3-b]pyridin-2-yl)-1H-indazol-5-yl)pyridin-3-yl)pivalamide]",inhibition at 10 µM,[1],11.7%
same,EC50,[1],> 10 µM
same,EC50,SW480 colon cancer cells,> 10 µM
same,inhibition at 10 µM,SW480 colon cancer cells,33.1%
same,EC50,[2],> 10 µM
same,inhibition at 10 µM,[2],0%
same,EC50,[3],> 10 µM
same,inhibition at 10 µM,[3],19.3%
"O=C(Nc1cncc(-c2ccc3[nH]nc(-c4cc5c(-c6ccc(F)cc6)ccnc5[nH]4)c3c2)c1)c1ccccc1 [Compound 39, N-(5-(3-(4-(4-Fluorophenyl)-1H-pyrrolo[2,3-b]pyridin-2-yl)-1H-indazol-5-yl)pyridin-3-yl)benzamide]",inhibition at 10 µM,[1],0%
same,EC50,[1],> 10 µM
same,EC50,SW480 colon cancer cells,> 10 µM
same,inhibition at 10 µM,SW480 colon cancer cells,24.2%
same,EC50,[2],4.88 µM
same,EC50,[3],> 10 µM
same,inhibition at 10 µM,[3],28.4%
"CCCC(=O)Nc1cncc(-c2ccc3[nH]nc(-c4cc5c(-c6ccc(F)cc6)ccnc5[nH]4)c3c2)c1 [Compound 45, N-(5-(3-(4-(4-Fluorophenyl)-1H-pyrrolo[2,3-b]pyridin-2-yl)-1H-indazol-5-yl)pyridin-3-yl)butyramide]",inhibition at 10 µM,[1],11%
same,EC50,[1],> 10 µM
same,EC50,SW480 colon cancer cells,> 10 µM
same,inhibition at 10 µM,SW480 colon cancer cells,30.7%
same,EC50,[2],5.24 µM
same,EC50,[3],> 10 µM
same,inhibition at 10 µM,[3],25.8%
"O=C(Nc1cncc(-c2ccc3[nH]nc(-c4cc5c(-c6ccc(F)cc6)ccnc5[nH]4)c3c2)c1)C1CCC1 [Compound 49, N-(5-(3-(4-(4-Fluorophenyl)-1H-pyrrolo[2,3-b]pyridin-2-yl)-1H-indazol-5-yl)pyridin-3-yl)cyclobutanecarboxamide]",inhibition at 10 µM,[1],10.6%
same,EC50,[1],> 10 µM
same,EC50,SW480 colon cancer cells,> 10 µM
same,inhibition at 10 µM,SW480 colon cancer cells,11.8%
same,EC50,[2],> 10 µM
same,inhibition at 10 µM,[2],3.2%
same,EC50,[3],> 10 µM
same,inhibition at 10 µM,[3],29.6%
"CC(C)C(=O)Nc1cncc(-c2ccc3[nH]nc(-c4cc5c(-c6ccccc6F)ccnc5[nH]4)c3c2)c1 [Compound 65, N-(5-(3-(4-(2-Fluorophenyl)-1H-pyrrolo[2,3-b]pyridin-2-yl)-1H-indazol-5-yl)pyridin-3-yl)isobutyramide]",inhibition at 10 µM,[1],30.5%
same,EC50,[1],> 10 µM
same,EC50,SW480 colon cancer cells,> 10 µM
same,inhibition at 10 µM,SW480 colon cancer cells,10.8%
same,EC50,[2],> 10 µM
same,inhibition at 10 µM,[2],11.7%
same,EC50,[3],> 10 µM
same,inhibition at 10 µM,[3],34.9%
"CC(C)Nc1cncc(-c2ccc3[nH]nc(-c4cc5c(-c6ccccc6F)ccnc5[nH]4)c3c2)c1 [Compound 68, 5-(3-(4-(2-Fluorophenyl)-1H-pyrrolo[2,3-b]pyridin-2-yl)-1H-indazol-5-yl)-N-isopropylpyridin-3-amine]",inhibition at 10 µM,[1],18.7%
same,EC50,[1],> 10 µM
same,EC50,SW480 colon cancer cells,> 10 µM
same,inhibition at 10 µM,SW480 colon cancer cells,10.9%
same,EC50,[2],> 10 µM
same,inhibition at 10 µM,[2],0%
same,EC50,[3],0.384 µM
"CC(C)(C)CC(=O)Nc1cncc(-c2ccc3[nH]nc(-c4cc5c(-c6ccccc6F)ccnc5[nH]4)c3c2)c1 [Compound 72, N-(5-(3-(4-(2-Fluorophenyl)-1H-pyrrolo[2,3-b]pyridin-2-yl)-1H-indazol-5-yl)pyridin-3-yl)-3,3-dimethylbutanamide]",inhibition at 10 µM,[1],9.3%
same,EC50,[1],> 10 µM
same,EC50,SW480 colon cancer cells,> 10 µM
same,inhibition at 10 µM,SW480 colon cancer cells,12.6%
same,EC50,[2],> 10 µM
same,inhibition at 10 µM,[2],5.4%
same,EC50,[3],> 10 µM
same,inhibition at 10 µM,[3],10.5%
"CCCCC(=O)Nc1cncc(-c2ccc3[nH]nc(-c4cc5c(-c6ccccc6F)ccnc5[nH]4)c3c2)c1 [Compound 75, N-(5-(3-(4-(2-Fluorophenyl)-1H-pyrrolo[2,3-b]pyridin-2-yl)-1H-indazol-5-yl)pyridin-3-yl)pentanamide]",inhibition at 10 µM,[1],13%
same,EC50,[1],> 10 µM
same,EC50,SW480 colon cancer cells,> 10 µM
same,inhibition at 10 µM,SW480 colon cancer cells,16.8%
same,EC50,[2],> 10 µM
same,inhibition at 10 µM,[2],29.1%
same,EC50,[3],> 10 µM
same,inhibition at 10 µM,[3],38.2%
"CC(C)CC(=O)Nc1cncc(-c2ccc3[nH]nc(-c4cc5c(-c6ccsc6)ccnc5[nH]4)c3c2)c1 [Compound 282, 3-Methyl-N-(5-(3-(4-(thiophen-3-yl)-1H-pyrrolo[2,3-b]pyridin-2-yl)-1H-indazol-5-yl)pyridin-3-yl)butanamide]",EC50,[1],2.1 µM
same,EC50,SW480 colon cancer cells,6.94 µM
same,EC50,[3],0.971 µM
"COc1cncc(-c2ccc3[nH]nc(-c4cc5c(-c6ccco6)ccnc5[nH]4)c3c2)c1 [Compound 991, 3-(4-(Furan-2-yl)-1H-pyrrolo[2,3-b]pyridin-2-yl)-5-(5-methoxypyridin-3-yl)-1H-indazole]",inhibition at 10 µM,[1],7.9%
same,EC50,[1],> 10 µM
same,EC50,SW480 colon cancer cells,> 10 µM
same,inhibition at 10 µM,SW480 colon cancer cells,0%
same,EC50,[3],0.012 µM
